This is an account of results in the supplement of paper PMC10949913.

What all share (experiment): area under concentration-response curve (viability) (AUC (a.u.)); higher = less active
Holding throughout (conditions): 48 h

The test system of one assay is CU-ACC1. The method in brief: (§1)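 Library compounds were dispensed at 11 concentrations (23 nL each) onto three adrenocortical carcinoma cell lines in 1,536-well plates. Luminescence was recorded after 48 h using CellTiter-Glo, and signals were normalised per plate to vehicle and empty-well controls. Fitted concentration-response curves of inhibitory or non-responding classes only supplied the AC50 and area under the curve.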

The test system of the next assay is CU-ACC2. In short, it runs like this:
as §1

For another assay, the system named is NCI-H295R. The method in brief:
as §1

The structures appear in SMILES notation. “And” between values parts separate entries of the source, which are not always exact repeats. Equal values may be shown once.

Regarding `NC/1=N/C(=O)N(C[C@@H](CO)OC[P](O)(O)=O)/C=C1`, the “area under concentration-response curve” value amounted to 465 with CU-ACC1, 522 in the assay with CU-ACC2 and 496 in the assay with NCI-H295R.
Regarding `Cc1cccc(-c2[nH]c(CNc3ccccc3F)nc2-c2ccc3ncnn3c2)n1`, the entries for the “area under concentration-response curve” value in the assay on CU-ACC1, with CU-ACC2 and in the assay on NCI-H295R were 483, 510 and 463, respectively.
Taken in the same sequence, the figures for `CC(C)(C)C(=O)CN1C(=O)[C@H](NC(=O)Nc2cccc(C(=O)O)c2)CN(C2CCCCC2)c2ccccc21` were 518, 612 and 559.
Taken in the same sequence, the figures for `Nc1nccc(-c2c(-c3ccc(F)cc3)ncn2C2CCN(Cc3ccon3)CC2)n1` were 467, 578 and 495.
Regarding `CN(C)CCOC(c1ccccc1)c1ccccc1`, the “area under concentration-response curve” value in the assay with CU-ACC1 was 478; in the assay on CU-ACC2, 565; in the assay on NCI-H295R, 527.
Taken in the same sequence, the figures for `O=C(NCC[S+](=O)([O-])c1ccc(C(F)(F)F)cn1)c1ccc(Cl)cc1` were 520, 580 and 544.
For `CCOC(=O)\C1=C\[C@@H](OC(CC)CC)[C@H](NC(C)=O)[C@@H](N)C1`, the “area under concentration-response curve” value was 508 in the assay with CU-ACC1, 602 with CU-ACC2 and 547 with NCI-H295R.
Taken in the same sequence, the figures for `NCC1(CC(=O)O)CCCCC1` were 315, 403 and 412.
As for `Cc1cc(C)c(/C=C2\C(=O)Nc3ccccc32)[nH]1`, the “area under concentration-response curve” value turned out to be 513 in the assay on CU-ACC1, 559 in the assay with CU-ACC2 and 532 in the assay with NCI-H295R.
Taken in the same sequence, the figures for `C=CCN(/C=C1\C(=O)O[C@@H](COC)[C@]2(C)C1=C(O)C(=O)C1=C2[C@@H](OC(C)=O)C[C@]2(C)C(=O)CC[C@H]12)CC=C` were 340, 385 and 401.
For `O=C(CO)N1CCC(c2n[nH]c(-c3ccc(Cl)cc3)c2-c2ccncn2)CC1`, the “area under concentration-response curve” value is 520 in the assay with CU-ACC1, 454 in the assay on CU-ACC2 and 515 with NCI-H295R.
`Cc1cnc(C(=O)O)c[n+]1[O-]`: the “area under concentration-response curve” value was 513 with CU-ACC1, 579 in the assay on CU-ACC2 and 526 with NCI-H295R.
On to `O=C(O)Cn1nnc(-c2cc(N3CCC(Oc4cc(F)ccc4Br)CC3)no2)n1`, for which the “area under concentration-response curve” value with CU-ACC1 came out at 491; in the assay with CU-ACC2, 594; with NCI-H295R it was 515.
For `CC1=CC=C2N=C(NC(=O)CS\C3=N\C4=C(\SCC4)C(=O)N3C5=CC=CC=C5)SC2=C1`, the “area under concentration-response curve” value with CU-ACC1 turned out to be 538; with CU-ACC2, 633; in the assay with NCI-H295R it was 558.
For the molecule `Cc1nc(-c2cccnc2)sc1C(=O)Nc1ccccc1-c1cn2c(CN3CCOCC3)csc2n1`, the “area under concentration-response curve” value turned out to be 454 in the assay on CU-ACC1, 456 with CU-ACC2 and 504 with NCI-H295R.
For the molecule `COc1ccc(Cl)c(Nc2nc3ccccc3nc2N[S+](=O)([O-])c2cccc(NC(=O)C(C)(C)N)c2)c1`, the “area under concentration-response curve” value in the assay with CU-ACC1 is 459; in the assay with CU-ACC2, 536; with NCI-H295R, 439.
Taken in the same sequence, the figures for `COC/1=C/[C@@H]2[C@@H]3CC4=C(C(=C(OC)C=C4)O)[C@]2(CCN3C)CC1=O` were 457, 519 and 479.
For `COc1nccc(-c2c(-c3ccc(F)cc3)ncn2C2CCC(O)CC2)n1` (stereo not drawn), the “area under concentration-response curve” value with CU-ACC1 amounted to 523; with CU-ACC2 it was 590; in the assay on NCI-H295R, 550.
For `C[C@@H](CN1CC(=O)NC(=O)C1)N1CC(=O)NC(=O)C1`, the entries for the “area under concentration-response curve” value with CU-ACC1, with CU-ACC2 and with NCI-H295R were 516, 588 and 478, respectively.
Turning to `O=C(O)c1ccccc1-c1ccc(/C=c2\sc3nc4cc(Br)cnc4n3c2=O)o1`, the figures for the “area under concentration-response curve” value with CU-ACC1, in the assay on CU-ACC2 and in the assay on NCI-H295R were 491, 457 and 549, respectively.
In the case of `CC[N+](CC)(CC)CCOc1cccc(OCC[N+](CC)(CC)CC)c1OCC[N+](CC)(CC)CC`, the “area under concentration-response curve” value is 412 with CU-ACC1, 472 with CU-ACC2 and 474 in the assay with NCI-H295R.
Taken in the same sequence, the figures for `O=C1CCC[C@@H]2[C@H]3CCC[N+]4([O-])CCC[C@@H](CN12)[C@@H]34` (stereo partly drawn) were 536, 610 and 552.
Consider `O=C([O-])C(O)Cc1ccc(O)c(O)c1` (stereo not drawn), for which the results for the “area under concentration-response curve” value with CU-ACC1, in the assay with CU-ACC2 and with NCI-H295R were 460, 589 and 553, respectively.
Consider `CCCC[C@@H](C=O)NC(=O)[C@H](CC(C)C)NC(=O)OCc1ccccc1`, for which the entries for the “area under concentration-response curve” value in the assay on CU-ACC1, in the assay with CU-ACC2 and in the assay on NCI-H295R were 463, 552 and 517, respectively.
As for `CC(=O)OCC(=O)[C@@]1(O)CC[C@H]2[C@@H]3CCC/4=C/C(=O)/C=C\[C@]4(C)[C@H]3[C@@H](O)C[C@]12C`, the “area under concentration-response curve” value in the assay on CU-ACC1 came out at 460; in the assay on CU-ACC2, 471; with NCI-H295R, 506.
On to `CCC/1=C(/NC2=C(C=N[N]2C1=O)C#N)C3=CC=CC=C3C`, for which the “area under concentration-response curve” value in the assay on CU-ACC1 is 550 and 493; in the assay on CU-ACC2 it was 577 and 487; with NCI-H295R, 552 and 522.
Regarding `C[C@H]1COC/2=C1/C(=O)C(=O)C3=C4CCCC(C)(C)C4=CC=C23`, the entries for the “area under concentration-response curve” value in the assay on CU-ACC1, with CU-ACC2 and in the assay on NCI-H295R were 525, 601 and 540, respectively.
In the case of `O=C(Nc1c(Cl)cncc1Cl)c1ccc(OC(F)F)c(OCC2CC2)c1`, the “area under concentration-response curve” value in the assay with CU-ACC1 is 464; in the assay on CU-ACC2, 556; in the assay with NCI-H295R, 523.
Taken in the same sequence, the figures for `Cc1c(-c2ccc(-c3ccccc3F)cc2)nc2ccc(F)cc2c1C(=O)O` were 595, 620 and 521.
For `COc1nc(C)nc(Cl)c1NC1=NCCN1`, the “area under concentration-response curve” value was determined as 468 in the assay on CU-ACC1, 436 in the assay with CU-ACC2 and 504 with NCI-H295R.
For `CN(CCOc1ccc(C[C@H](Nc2ccccc2C(=O)c2ccccc2)C(=O)O)cc1)c1ccccn1`, the “area under concentration-response curve” value in the assay on CU-ACC1 is 429 and 437; in the assay with CU-ACC2, 413; in the assay on NCI-H295R, 388 and 454.
As for `COC1=CC(=CC(=C1CN(C)C)OC)\C2=C\N(C)C(=O)C3=C2C=CN=C3`, the “area under concentration-response curve” value with CU-ACC1 amounted to 500; in the assay with CU-ACC2 it was 578; in the assay on NCI-H295R, 479.
In the case of `CC(C)Cc1ccc([C@@H](C)C(=O)N[S+](C)(=O)[O-])cc1`, the “area under concentration-response curve” value was determined as 492 in the assay with CU-ACC1, 586 with CU-ACC2 and 553 in the assay on NCI-H295R.
On to `CN(C(=O)c1ccc(F)cc1C(F)(F)F)C1CCN(c2nnc(-c3ccnn3C)c3ccccc23)CC1`, for which the results for the “area under concentration-response curve” value with CU-ACC1, with CU-ACC2 and in the assay on NCI-H295R were 495, 601 and 566, respectively.
Taken in the same sequence, the figures for `C[C@]1(c2nc3c(C(N)=O)cccc3[nH]2)CCCN1` were 495, 564 and 521.
Take `Cc1cnc(NC(=O)c2cc(Oc3cnc(C(=O)N(C)C)nc3)c3cc(C)oc3c2)cn1`: the “area under concentration-response curve” value in the assay on CU-ACC1 stood at 564; with CU-ACC2, 643; with NCI-H295R, 594.
Regarding `COc1cc(C(C)C)c(Oc2cnc(NC(CO)CO)nc2N)cc1I`, the results for the “area under concentration-response curve” value in the assay on CU-ACC1, with CU-ACC2 and in the assay with NCI-H295R were 557, 661 and 594, respectively.
`N#Cc1ccc(N(Cc2ccc(Br)cc2)n2cnnc2)cc1`: the “area under concentration-response curve” value in the assay on CU-ACC1 came out at 413; in the assay on CU-ACC2, 633; in the assay on NCI-H295R, 598.
Regarding `Cc1c(Cl)cccc1[S+](=O)([O-])Nc1nc(CCN2CCOCC2=O)cs1`, the “area under concentration-response curve” value in the assay on CU-ACC1 stood at 483; in the assay on CU-ACC2, 583; with NCI-H295R, 520.
Taken in the same sequence, the figures for `CN1C(=O)\C(=C/C(=C1/NC2=C(F)C=C(I)C=C2)C(=O)NOCCO)C` were 335, 519 and 550.
Take `CCOC(=O)c1c(/C(C#N)=C\N)c2ccc(Cl)c(Cl)c2n1C`: the “area under concentration-response curve” value in the assay on CU-ACC1 was 510; in the assay on CU-ACC2, 478; with NCI-H295R, 517.
